Structures are written as SMILES. Entries after “also recorded” stand apart in the source; their conditions may differ.

Assay [1] deals with Agrobacterium tumefaciens (KYC55). The assay is described as follows: Quorum sensing inhibition test with bio-reporter KYC55 (TLC overlay). For Degree of QSI of KYC55: key: −: no inhibition; +: low inhibition; ++: medium inhibition; +++: strong inhibition. For Degree of quorum sensing inhibition (QSI), KYC55: key: −: no inhibition; +: low inhibition; ++: medium inhibition; +++: strong inhibition. The class given is cell-based. To be noted: for QSI activity against KYC55, in words: running text; for Degree of QSI of KYC55: Table 1, coumaperine derivatives, 40 mM in ~20 μL acetonitrile dried on TLC plate, overnight, color intensity. Here is the method: (§1) TLC preparation: all derivatives were dissolved in 100% acetonitrile to a concentration of 40 mM. Then placed 20 μlon the same spot on the TLC and let the solvent evaporate before use. CV026: few colonies were transferred to liquid LB (Lenox) for overnight incubation at 30° C. in a 45 degree in orbital shaker. At the O.D. 0.8 3 ml of the starter was added to preheated soft LB agar containing 500 nM of 3-oxo-C6 (Sigma-Aldrich). The mixture was then loaded on the TLC in a glass plate for O.N. incubation in 30° C. The next day inhibition zone was measured, while QS is taking place bacteria produce purple pigment, and when QS is inhibited no pigment is produced. KYC55 (pJZ372) (pJZ384) (pJZ410): 20 μl from the frozen stock into 25 ml AT media (AT buffer×20: 1.57 M KH2PO4 pH=7.3. AT salts mix×20: 300 mM (NH4)2SO4, 13 mM MgSO4, 1.4 mM CaCl2, 0.4 mM FeSO4·7H2O, 0.26 mM MnSO4·H2O. AT media: 50 ml×20 AT-buffer, 50 ml×20 AT-salts, 10 ml 50% (w/v) glucose, add 890 ml to final volume of 1 liter.) For O.N. at 30° C. in an orbital shaker. Into preheated water agar with 25 ml AT-buffer, and 60 μg/ml X-gal and 5 nM 3-oxo-c8 (both from Sigma-Aldrich) 25 ml of the starter was added. Then, that mixture was loaded on the TLC in glass plate for O.N. incubation in 30° C. The next day the inhibition zone was measured. The bacteria produce blue pigment during QS and when QS is inhibited no pigment is produced. KYC55 (pJZ372) (pJZ384) (pJZ410) preservation in tetracycline (1 μg/ml), spectinomycin (100 μg/ml), gentamicin (100 μg/ml) (all antibiotics from Sigma Aldrich) in AT media O.N. then centrifuged and suspend in 15% glycerol frozen and maintained at −80° C.

Assay [2] deals with Chromobacterium violaceum (CV026). The assay is described as follows: Quorum sensing inhibition test with bio-reporter CV026 (TLC overlay). For Degree of QSI of CV026: key: −: no inhibition; +: low inhibition; ++: medium inhibition; +++: strong inhibition. For Degree of quorum sensing inhibition (QSI), CV026: key: −: no inhibition; +: low inhibition; ++: medium inhibition; +++: strong inhibition. The class given is cell-based. As to conditions: for QSI activity against CV026, in words: running text; for Degree of QSI of CV026: Table 1, coumaperine derivatives, 40 mM in ~20 μL acetonitrile dried on TLC plate, overnight, color intensity. On the procedure: as §1

Setting [3] is: Table 2, piperlongumine derivatives.

In the case of `COc1cc(/C=C/C(=O)NCCCCC(=O)O)cc(OC)c1OC`, the “Degree of quorum sensing inhibition (QSI), KYC55” value in assay [1] (setting [3]) is on record as “−”. For the same compound, the “Degree of quorum sensing inhibition (QSI), CV026” value in assay [2] (setting [3]) is recorded as “−”.
With `COc1cc(/C=C/C(=O)NCCO)cc(OC)c1OC`, in assay [1] (setting [3]), the “Degree of quorum sensing inhibition (QSI), KYC55” value is given as “−”. In assay [2] (setting [3]), the “Degree of quorum sensing inhibition (QSI), CV026” value is given as “−”.
For the compound `C=CCNC(=O)/C=C/c1cc(OC)c(OC)c(OC)c1`, the “Degree of quorum sensing inhibition (QSI), KYC55” value in assay [1] (setting [3]) is on record as “+”. In assay [2] (setting [3]), the “Degree of quorum sensing inhibition (QSI), CV026” value was “−”.
For the compound `COc1cc(/C=C/C(=O)NCCc2ccc(O)cc2)cc(OC)c1OC`, the “Degree of quorum sensing inhibition (QSI), KYC55” value in assay [1] (setting [3]) is listed as “−”. In addition, the “Degree of quorum sensing inhibition (QSI), CV026” value in assay [2] (setting [3]) is “−”.
For `COc1cc(/C=C/C(=O)NCCc2ccc(O)c(O)c2)cc(OC)c1OC`, the “Degree of quorum sensing inhibition (QSI), KYC55” value in assay [1] (setting [3]) was “−”. For the same compound, the “Degree of quorum sensing inhibition (QSI), CV026” value in assay [2] (setting [3]) is on record as “−”.
Regarding `COc1cc(/C=C/C(=O)N2CCCCC2)cc(OC)c1OC`, the “Degree of quorum sensing inhibition (QSI), KYC55” value in assay [1] (setting [3]) is given as “−”. The “Degree of quorum sensing inhibition (QSI), CV026” value in assay [2] (setting [3]) is listed as “−”.
Turning to `COc1cc(/C=C/C(=O)NC(C)C)cc(OC)c1OC`, in assay [1] (setting [3]), the “Degree of quorum sensing inhibition (QSI), KYC55” value is on record as “−”. Moreover, the “Degree of quorum sensing inhibition (QSI), CV026” value in assay [2] (setting [3]) is on record as “−”.
Regarding `CCOC(=O)CNC(=O)/C=C/c1cc(OC)c(OC)c(OC)c1`, the “Degree of quorum sensing inhibition (QSI), KYC55” value in assay [1] (setting [3]) was “−”. Besides, the “Degree of quorum sensing inhibition (QSI), CV026” value in assay [2] (setting [3]) is listed as “−”.
Turning to `COc1cc(/C=C/C(=O)NCC(=O)O)cc(OC)c1OC`, the “Degree of quorum sensing inhibition (QSI), KYC55” value in assay [1] (setting [3]) is on record as “+”. The “Degree of quorum sensing inhibition (QSI), CV026” value in assay [2] (setting [3]) is on record as “−”.
For `CCNC(=O)/C=C/c1cc(OC)c(O)c(OC)c1` the same measures were “−” and “−”.
On to `COc1cc(/C=C/C(=O)CC(=O)/C=C/c2ccc(OC(C)=O)c(OC)c2)ccc1OC(C)=O` [AC-CU, Diacetylated Curcumin], for which the “Degree of quorum sensing inhibition (QSI), KYC55” value in assay [1] (Table 3, curcumin derivatives) was “−”. In addition, in assay [1], the “QSI activity against KYC55, in words” value is “inactive”. Besides, in assay [2] (Table 3, curcumin derivatives), the “Degree of quorum sensing inhibition (QSI), CV026” value is given as “−”. In addition, the “QSI activity against CV026, in words” value in assay [2] is “inactive”.
On to `COc1cc(CCC(=O)CC(=O)CCc2ccc(OC(C)=O)c(OC)c2)ccc1OC(C)=O` [AC-THC, Diacetylated Tetrahydrocurcumin], for which the “Degree of quorum sensing inhibition (QSI), KYC55” value in assay [1] (Table 3, curcumin derivatives) is recorded as “−”. For the same compound, in assay [1], the “QSI activity against KYC55, in words” value was “inactive”. In addition, the “Degree of quorum sensing inhibition (QSI), CV026” value in assay [2] (Table 3, curcumin derivatives) is reported as “−”. Also, the “QSI activity against CV026, in words” value in assay [2] is “inactive”.
Turning to `O=C(/C=C/C=C/c1ccc(O)cc1)N1CCCCC1` [CP, (2E,4E)-5-(4-hydroxyphenyl)-1-(piperidin-1-yl)penta-2,4-dien-1-one], in assay [1], the “QSI activity against KYC55, in words” value was “inactivity”. For the same compound, the “QSI activity against CV026, in words” value in assay [2] was “low activity”.
Turning to `COc1ccc(/C=C/C=C/C(=O)N2CCCCC2)cc1OC` [CP-10, (2E,4E)-5-(3,4-dimethoxyphenyl)-1-(piperidin-1-yl)penta-2,4-dien-1-one], in assay [1], the “Degree of QSI of KYC55” value is “−” and the “QSI activity against KYC55, in words” value is “inactive”. Moreover, in assay [2], the “Degree of QSI of CV026” value is “−” and the “QSI activity against CV026, in words” value was “inactive”.
In the case of `COc1cc(/C=C/C=C/C(=O)N2CCCCC2)cc(OC)c1OC` [CP-27, (2E,4E)-1-(piperidin-1-yl)-5-(3,4,5-trimethoxyphenyl)penta-2,4-dien-1-one], in assay [1], the “Degree of QSI of KYC55” value is on record as “−” and the “QSI activity against KYC55, in words” value is “inactive”. Also, in assay [2], the “Degree of QSI of CV026” value is on record as “−” and the “QSI activity against CV026, in words” value was “inactive”.
Turning to `CN(C)c1ccc(/C=C/C=C/C(=O)N2CCCCC2)cc1` [CP-32, (2E,4E)-5-(4-(dimethylamino)phenyl)-1-(piperidin-1-yl)penta-2,4-dien-1-one], the “QSI activity against KYC55, in words” value in assay [1] is reported as “inactivity”. Besides, the “QSI activity against CV026, in words” value in assay [2] is given as “low activity”.
Take `COc1ccc(/C=C/C=C/C(=O)N2CCCCC2)c(OC)c1OC` [CP-50, (2E,4E)-1-(piperidin-1-yl)-5-(2,3,4-trimethoxyphenyl)penta-2,4-dien-1-one]: in assay [1], the “Degree of QSI of KYC55” value is recorded as “−” and the “QSI activity against KYC55, in words” value was “inactive”. Also, in assay [2], the “Degree of QSI of CV026” value is given as “−” and the “QSI activity against CV026, in words” value was “inactive”.
As for `COc1ccc(/C=C/C=C/C=C/C(=O)N2CCCCC2)cc1` [CP-102, (2E,4E,6E)-7-(4-methoxyphenyl)-1-(piperidin-1-yl)hepta-2,4,6-trien-1-one], in assay [1], the “Degree of QSI of KYC55” value was “+” and the “QSI activity against KYC55, in words” value is “low”. Moreover, in assay [2], the “Degree of QSI of CV026” value is on record as “++” and the “QSI activity against CV026, in words” value is on record as “moderate”.
For the compound `O=C(/C=C/C=C/c1ccc(Cl)cc1)N1CCCCC1` [CP-123, (2E,4E)-5-(4-chlorophenyl)-1-(piperidin-1-yl)penta-2,4-dien-1-one], in assay [1], the “Degree of QSI of KYC55” value was “+” and the “QSI activity against KYC55, in words” value is given as “low activity”. Also, in assay [2], the “Degree of QSI of CV026” value is given as “−” and the “QSI activity against CV026, in words” value is “inactive”.
The corresponding values for `O=C(/C=C/C=C/c1ccc(OC2CCCC2)cc1)N1CCCCC1` [CP-184, (2E,4E)-5-(4-(cyclopentyloxy)phenyl)-1-(piperidin-1-yl)penta-2,4-dien-1-one] are “−”, “inactive”, “−” and “inactive”.
Turning to `COc1cc(/C=C/C=C/C(=O)N2CCCCC2)cc(OC)c1` [CP-193, (2E,4E)-5-(3,5-dimethoxyphenyl)-1-(piperidin-1-yl)penta-2,4-dien-1-one], in assay [1], the “Degree of QSI of KYC55” value is “−” and the “QSI activity against KYC55, in words” value is “inactivity”. In assay [2], the “Degree of QSI of CV026” value is “+” and the “QSI activity against CV026, in words” value is listed as “low activity”.
`COc1cc(OC)c(/C=C/C=C/C(=O)N2CCCCC2)c(OC)c1` [CP-194, (2E,4E)-1-(piperidin-1-yl)-5-(2,4,6-trimethoxyphenyl)penta-2,4-dien-1-one]: in assay [1], the “Degree of QSI of KYC55” value is given as “−” and the “QSI activity against KYC55, in words” value was “inactive”. In addition, in assay [2], the “Degree of QSI of CV026” value is recorded as “−” and the “QSI activity against CV026, in words” value was “inactive”.
`O=C(/C=C/C=C/c1ccc(O)c(O)c1)N1CCCCC1` [CP-209, (2E,4E)-5-(3,4-dihydroxyphenyl)-1-(piperidin-1-yl)penta-2,4-dien-1-one]: in assay [1], the “Degree of QSI of KYC55” value is on record as “+” and the “QSI activity against KYC55, in words” value is “low activity; also recorded: inactive”. In assay [2], the “Degree of QSI of CV026” value is “+” and the “QSI activity against CV026, in words” value was “low activity; also recorded: inactive”.
Take `O=C(/C=C/c1ccc(O)c(O)c1)N1CCCCC1` [CP-237, (E)-3-(3,4-dihydroxyphenyl)-1-(piperidin-1-yl)prop-2-en-1-one]: in assay [1], the “Degree of QSI of KYC55” value is on record as “++” and the “QSI activity against KYC55, in words” value is “moderate activity”. In assay [2], the “Degree of QSI of CV026” value was “++” and the “QSI activity against CV026, in words” value is “moderate activity”.
As for `O=C(/C=C/C=C/C=C/c1ccc(O)c(O)c1)N1CCCCC1` [CP-239A, (2E,4E,6E)-7-(3,4-dihydroxyphenyl)-1-(piperidin-1-yl)hepta-2,4,6-trien-1-one], in assay [1], the “Degree of QSI of KYC55” value is on record as “−” and the “QSI activity against KYC55, in words” value is “inactive”. In assay [2], the “Degree of QSI of CV026” value is listed as “−” and the “QSI activity against CV026, in words” value was “inactive”.
